Measured values from paper PMC6260593, “Kaempferol and Kaempferol Rhamnosides with Depigmenting and Anti-Inflammatory Properties” (Molecules, 2011).
Read-outs that look alike come from different tables or passages of the source.

How the values were obtained:
[1] = test system: B16 melanoma cells; assay: Depigmenting activity (melanin content) in B16 melanoma cells; format: cell-based; conditions: for IC50: Mus musculus, 120 h, 5 days, melanin content, read-out: Inhibitory activity [IC50] Depigmentation
Experimental: The cell pellets were then dissolved in 1 N NaOH in 10% DMSO (500 μL) at 80 °C for 1 h. The relative melanin content was determined by measuring the absorbance at 475 nm with an ELISA reader (Molecular Devices Corp., Menlo Park, CA, USA). A standard synthetic melanin curve (0–500 μg⁄mL) was prepared in triplicate for each experiment.

[2] = Cytotoxicity towards B16 melanoma cells; format: cell-based; conditions: mouse, read-out: Inhibitory activity [IC50] Cytotoxicity
[3] = test system: NO production in LPS-activated RAW264.7 cells; assay: Inhibition of NO production induced by LPS in RAW264.7 cells (Griess); format: cell-based; conditions: Mus musculus, LPS 1 μg/mL, 24 h, read-out: Inhibitory activity [IC50] NO
Experimental: The nitrite in the culture supernatants was measured by adding Griess reagent (100 μL, 1% sulfanilamide and 0.1% N-[1-naphthyl]-ethylenediamine dihydrochloride in 5% phosphoric acid) to samples of the medium (100 μL) for 10 min at room temperature. The OD at 570 nm (OD570) was measured using a Spectramax 250 microplate reader (Molecular Devices). A standard curve of NO was made with sodium nitrite.

[4] = in vitro; conditions: mouse
Experimental: (§1) The cytotoxic effect of kojyl thioether derivatives was then evaluated by a conventional MTT assay. At 3 h prior to culture termination, MTT solution (10 μL, 5 mg/mL in a phosphate buffered-saline, pH 7.4) was added and the cells were continuously cultured until termination. The incubation was halted by the addition of 15% sodium dodecyl sulfate into each well, solubilizing formazan. The absorbance at 570 nm (OD570–630) was measured by a Spectramax 250 microplate reader.

[5] = test system: NF-κB-mediated luciferase activity; assay: NF-κB-mediated luciferase assay in HEK293 cells; format: cell-based; conditions: HEK293 cells transfected with NF-κB-Luc, PMA 0.1 μM, 24 h, read-out: Inhibitory activity [IC50] NF-κB-mediated luciferase activity
Experimental: HEK293 cells (1 × 10^6 cells/mL) were transfected with plasmids containing NF-κB-Luc, (1 μg/mL each) as well as β-galactosidase (0.5 μg/mL) using the PEI method in a 12-well plate for 48 h, and they were treated with testing compounds in the presence or absence of PMA (0.1 μM) for 24 h. Luciferase assay was performed using the Luciferse Assay System (Promega).

[6] = test system: Tyrosinase; set-up: method as in PMID 21050756; conditions: previously reported, cited from earlier work; for IC50: means of three experiments, read-out: Inhibitory activity [IC50] Tyrosinase
[7] = test system: B16 melanoma cells; assay: Cytotoxicity towards B16 melanoma cells; format: cell-based
[8] = test system: RAW264.7 cells; assay: Cytotoxicity in RAW264.7 cells (MTT)
Experimental: as §1

[9] = test system: iNOS mRNA; assay: Expression of iNOS mRNA in LPS-activated RAW 264.7 cells (RT-PCR); format: cell-based; conditions: 25–100 μM, LPS 1 μg/mL for 6 h
Experimental: RAW 264.7 cells were treated with different concentrations of compound 1 and 2 (25–100 μM) and then stimulated with LPS (1 μg/mL) for 6 h.
The total RNA from the LPS treated-RAW264.7 cells was prepared by adding TRIzol Reagent (Gibco BRL), as per the manufacturer’s instructions. Real-time PCR reactions were conducted using MuLV reverse transcriptase. The primers (Bioneer, Daejeon, Korea) were used as previously reported.

Structure (SMILES)	IC50 [1] [µM]	IC50 [2] [µM]	IC50 [3] [µM]	IC50 at 24 h [4] [µM]	IC50 ([5]; Homo sapiens) [µM]	Tyrosinase inhibitory activity (in words) [6]	IC50 [5] [µM]	Depigmenting inhibitory activity (in words) [1]	Cytotoxicity towards B16 melanoma cells (in words) [7]	IC50 at 24 h ([4]; RAW264.7 cells) [µM]	Cytotoxicity in the NO assay cells (in words) ([8]; RAW264.7 cells)	Expression of iNOS mRNA (in words) [9]	IC50 [6] [µM]	Cytotoxicity in the NO assay cells (in words) [8]
C[C@@H]1O[C@@H](Oc2c(-c3ccc(O)cc3)oc3cc(O)cc(O)c3c2=O)[C@H](O)[C@H](O)[C@H]1O [Afzelin (3), kaempferol 3-O-α-L-rhamnopyranoside]	> 100	> 100	> 100	> 100	> 100	showed no inhibitory activities								
OC[C@H]1O[C@@H](Oc2ccc(O)cc2)[C@H](O)[C@@H](O)[C@@H]1O [Arbutin, reference compound]	171 ± 2.1	> 200												
Cc1ccc(S(=O)(=O)/C=C/C#N)cc1 [BAY11-7082, reference compound]							11.5 ± 0.1							
C[C@@H]1O[C@@H](Oc2cc(O)c3c(=O)c(O[C@@H]4O[C@@H](C)[C@H](O)[C@@H](O)[C@H]4O)c(-c4ccc(O)cc4)oc3c2)[C@H](O)[C@H](O)[C@H]1O [Kaempferitrin (4), kaempferol-3,7-O-α-dirhamnoside]	> 100	> 100	> 100	> 100	> 100	showed no inhibitory activities								
O=c1c(O)c(-c2ccc(O)cc2)oc2cc(O)cc(O)c12 [Kaempferol (1), kaempferol]	37.66 ± 0.1	25.6 ± 0.9	15.4 ± 0.2		90.3 ± 5.1	showed tyrosinase inhibitory activities		showed inhibitory activity	showed cytotoxicity towards B16 melanoma cells	> 100	without cytotoxicity	suppressed the expression of iNOS mRNA in a dose-dependent manner	171.4 ± 0.9	
CC(=O)CCCCn1c(=O)c2c(ncn2C)n(C)c1=O [Pentoxifylline, pentoxifylline, reference compound]			446 ± 1.1							> 1000				
C[C@@H]1O[C@@H](Oc2cc(O)c3c(=O)c(O)c(-c4ccc(O)cc4)oc3c2)[C@H](O)[C@H](O)[C@H]1O [α-Rhamnoisorobin (2), kaempferol 7-O-α-L-rhamnopyranoside]	39.5 ± 0.4	22.9 ± 1.3	37.7 ± 2	> 100	36.2 ± 3.3	showed tyrosinase inhibitory activities		showed inhibitory activity	showed cytotoxicity towards B16 melanoma cells			suppressed the expression of iNOS mRNA in a dose-dependent manner	> 400	without cytotoxicity
